{"source": "patent US20120264735A1", "about": "(priority 2009, published 2012)", "note": "pIC50: −log10 of the molar value.", "data": [{"target": "T1, c-Met kinase (recombinant c-Met) (Homo sapiens, UniProt P08581)", "T1 construct": "0.27 nM recombinant c-Met", "T1 sequence (P08581 25-1390)": "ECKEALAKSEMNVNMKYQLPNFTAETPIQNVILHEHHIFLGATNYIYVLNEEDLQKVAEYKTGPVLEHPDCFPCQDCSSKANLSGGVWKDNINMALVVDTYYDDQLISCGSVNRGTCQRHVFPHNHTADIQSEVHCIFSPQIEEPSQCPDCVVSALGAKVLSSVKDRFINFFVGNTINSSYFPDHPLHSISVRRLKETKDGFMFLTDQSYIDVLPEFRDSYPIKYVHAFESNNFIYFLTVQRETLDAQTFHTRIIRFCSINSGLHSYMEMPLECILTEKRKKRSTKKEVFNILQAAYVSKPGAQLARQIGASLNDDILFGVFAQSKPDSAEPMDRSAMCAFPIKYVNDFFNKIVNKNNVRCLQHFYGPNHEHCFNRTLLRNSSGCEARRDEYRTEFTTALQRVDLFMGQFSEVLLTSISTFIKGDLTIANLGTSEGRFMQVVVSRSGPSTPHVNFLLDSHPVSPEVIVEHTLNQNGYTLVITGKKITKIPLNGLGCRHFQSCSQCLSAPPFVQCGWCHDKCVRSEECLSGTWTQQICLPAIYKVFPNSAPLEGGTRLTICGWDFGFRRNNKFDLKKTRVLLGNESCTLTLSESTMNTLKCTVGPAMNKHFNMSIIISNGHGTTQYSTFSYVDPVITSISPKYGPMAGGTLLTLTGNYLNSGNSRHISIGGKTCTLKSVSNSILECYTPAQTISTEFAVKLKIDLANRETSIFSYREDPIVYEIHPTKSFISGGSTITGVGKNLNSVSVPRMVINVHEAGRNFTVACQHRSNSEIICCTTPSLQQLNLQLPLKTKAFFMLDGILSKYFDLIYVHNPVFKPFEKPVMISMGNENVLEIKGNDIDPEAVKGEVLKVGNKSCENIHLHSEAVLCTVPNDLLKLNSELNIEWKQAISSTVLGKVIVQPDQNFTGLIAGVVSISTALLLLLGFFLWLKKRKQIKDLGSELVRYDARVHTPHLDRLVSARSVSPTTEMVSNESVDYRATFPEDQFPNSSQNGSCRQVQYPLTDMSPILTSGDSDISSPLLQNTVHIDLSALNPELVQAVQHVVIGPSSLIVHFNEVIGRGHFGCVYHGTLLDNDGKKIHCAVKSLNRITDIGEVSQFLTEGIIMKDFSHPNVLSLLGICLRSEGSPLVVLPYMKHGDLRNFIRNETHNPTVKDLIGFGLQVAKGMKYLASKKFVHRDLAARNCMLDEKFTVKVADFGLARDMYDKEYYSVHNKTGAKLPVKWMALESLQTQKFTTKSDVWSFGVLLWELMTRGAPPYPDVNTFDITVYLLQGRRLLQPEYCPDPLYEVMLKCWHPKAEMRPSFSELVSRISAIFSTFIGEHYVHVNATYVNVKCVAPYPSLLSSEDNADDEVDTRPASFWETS", "test": "In vitro kinase assay I (homogeneous time-resolved fluorescence tyrosine kinase assay)", "type": "biochemical", "outline": "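Biotinylated peptide (0.5 μM) phosphorylated by 0.2 nM recombinant c-Met with 50 μM MgATP, 60 min at room temperature, pH 7.4, 5% DMSO. EDTA stop; HTRF read with Eu-anti-phosphotyrosine antibody and streptavidin-APC. IC50 from 4-parameter logistic fit.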", "values": [{"smiles": "CC(C)COc1cnc(-c2cccc(Cc3nn(-c4cnn(C)c4)ccc3=O)c2)nc1", "note": "[Example 261, 3-{3-[5-(2-methylpropoxy)pyrimidin-2-yl]benzyl}-1-(1-methyl-1H-pyrazol-4-yl)pyridazin-4(1H)-one]", "pIC50": "> 7.00"}, {"smiles": "O=C(Nc1cccc(Cc2nn(-c3cc(F)c(F)c(F)c3)ccc2=O)c1)OCC1CCOCC1", "note": "[Example 558, tetrahydro-2H-pyran-4-ylmethyl (3-{[4-oxo-1-(3,4,5-trifluorophenyl)-1,4-dihydropyridazin-3-yl]methyl}phenyl)carbamate]", "pIC50": "> 7.00"}, {"smiles": "COC(C)(C)COc1cnc(-c2cccc(Cc3nn(-c4cnn(C)c4)ccc3=O)c2)nc1", "note": "[Example 267, 3-{3-[5-(2-methoxy-2-methylpropoxy)pyrimidin-2-yl]benzyl}-1-(1-methyl-1H-pyrazol-4-yl)pyridazin-4(1H)-one]", "pIC50": "> 7.00"}, {"smiles": "Cn1cc(-n2ccc(=O)c(Cc3ccc4nccn4c3)n2)cn1", "note": "[Example 46, 3-(imidazo[1,2-a]pyridin-6-ylmethyl)-1-(1-methyl-1H-pyrazol-4-yl)pyridazin-4(1H)-one]", "pIC50": "5.52 to 6.00"}, {"smiles": "CCn1cc(-n2ccc(=O)c(Cc3cccc(-c4ncc(OCC5(C)COC5)cn4)c3)n2)cn1", "note": "[Example 316, 1-(1-ethyl-1H-pyrazol-4-yl)-3-(3-{5-[(3-methyloxetan-3-yl)methoxy]pyrimidin-2-yl}benzyl)pyridazin-4(1H)-one]", "pIC50": "> 7.00"}, {"smiles": "CC(c1cccc(-c2ncc(N3CCOCC3)cn2)c1)c1nn(-c2cnn(C)c2)ccc1=O", "note": "(single isomer, unassigned) [Example 244, 1-(1-methyl-1H-pyrazol-4-yl)-3-{(1R or S)-1-[3-(5-morpholin-4-ylpyrimidin-2-yl)phenyl]ethyl}pyridazin-4(1H)-one]", "pIC50": "6.00 to 7.00"}, {"smiles": "Cc1ccnc(-c2cccc(C(C)c3nn(-c4cnn(C)c4)ccc3=O)c2)n1", "note": "(single isomer, unassigned) [Example 691, 1-(1-methyl-1H-pyrazol-4-yl)-3-{(1R or S)-1-[3-(4-methylpyrimidin-2-yl)phenyl]ethyl} pyridazin-4(1H)-one]", "pIC50": "> 7.00"}, {"smiles": "CCCn1cnc(-c2cccc(Cc3nn(-c4cc(F)cc(C#N)c4)ccc3=O)c2)n1", "note": "[Example 81, 3-fluoro-5-{4-oxo-3-[3-(1-propyl-1H-1,2,4-triazol-3-yl)benzyl]pyridazin-1(4H)-yl}benzonitrile]", "pIC50": "> 7.00"}, {"smiles": "CCOC(=O)Nc1cccc(Cc2nn(-c3cnn(C(C)C)c3)ccc2=O)c1", "note": "[Example 103, ethyl [3-({1-[1-(1-methylethyl)-1H-pyrazol-4-yl]-4-oxo-1,4-dihydropyridazin-3-yl}methyl)phenyl]carbamate]", "pIC50": "> 7.00"}, {"smiles": "CC(C)COC(=O)Nc1cccc(Cc2nn(-c3ccc(-c4cccnc4)cc3)ccc2=O)c1", "note": "[Example 727, 2-Methylpropyl[3-({4-oxo-1-[4-(pyridin-3-yl)phenyl]-1,4-dihydropyridazin-3-yl}methyl)phenyl]carbamate]", "pIC50": "> 7.00"}, {"smiles": "O=C(Nc1cccc(Cc2nn(-c3cc(F)c(F)c(F)c3)ccc2=O)c1)OCC1CCCCC1", "note": "[Example 557, cyclohexylmethyl (3-{[4-oxo-1-(3,4,5-trifluorophenyl)-1,4-dihydropyridazin-3-yl]methyl}phenyl)carbamate]", "pIC50": "> 7.00"}, {"smiles": "CCCOC(=O)Nc1cccc(Cc2nn(-c3cc(F)c(F)c(F)c3)ccc2=O)c1", "note": "[Example 8, propyl (3-{[4-oxo-1-(3,4,5-trifluorophenyl)-1,4-dihydropyridazin-3-yl]methyl}phenyl)carbamate]", "pIC50": "> 7.00"}, {"smiles": "CCn1cc(-n2ccc(=O)c(Cc3cccc(-c4ncc(OCCn5cccn5)cn4)c3)n2)cn1", "note": "[Example 315, 1-(1-ethyl-1H-pyrazol-4-yl)-3-(3-{5-[2-(1H-pyrazol-1-yl)ethoxy]pyrimidin-2-yl}benzyl)pyridazin-4(1H)-one]", "pIC50": "> 7.00"}, {"smiles": "COc1cnc(-c2cccc(Cc3nn(-c4ccc(OC)nc4)ccc3=O)c2)nc1", "note": "[Example 33, 1-(6-methoxypyridin-3-yl)-3-[3-(5-methoxypyrimidin-2-yl)benzyl]pyridazin-4(1H)-one]", "pIC50": "> 7.00"}, {"smiles": "CCOc1cnc(-c2cccc(Cc3nn(-c4cnn(C5CN(C)C5)c4)ccc3=O)c2)nc1", "note": "[Example 668, 3-[3-(5-Ethoxypyrimidin-2-yl)benzyl]-1-[1-(1-methylazetidin-3-yl)-1H-pyrazol-4-yl]pyridazin-4(1H)-one]", "pIC50": "6.00 to 7.00"}, {"smiles": "Cn1cc(-n2ccc(=O)c(Cc3cccc(-c4ncn(CCc5ccccc5)n4)c3)n2)cn1", "note": "[Example 715, 1-(1-methyl-1H-pyrazol-4-yl)-3-{3-[1-(2-phenylethyl)-1H-1,2,4-triazol-3-yl]benzyl}pyridazin-4(1H)-one]", "pIC50": "6.00 to 7.00"}, {"smiles": "CCOc1cnc(-c2cccc(Cc3nn(-c4cnn(CC)c4)ccc3=O)c2)nc1", "note": "[Example 150, 3-[3-(5-ethoxypyrimidin-2-yl)benzyl]-1-(1-ethyl-1H-pyrazol-4-yl)pyridazin-4(1H)-one]", "pIC50": "> 7.00"}, {"smiles": "O=C(Nc1cccc(Cc2nn(-c3ccc(F)c(F)c3)ccc2=O)c1)OCC1COCCO1", "note": "(racemic) [Example 603, rac-1,4-dioxan-2-ylmethyl (3-{[1-(3,4-difluorophenyl)-4-oxo-1,4-dihydropyridazin-3-yl]methyl}phenyl)carbamate]", "pIC50": "> 7.00"}, {"smiles": "CCn1cc(-n2ccc(=O)c(C(C)c3cccc(-c4ncc(OCc5ccccc5)cn4)c3)n2)cn1", "note": "(single isomer, unassigned) [Example 228, 3-((1S or R)-1-{3-[5-(benzyloxy)pyrimidin-2-yl]phenyl}ethyl)-1-(1-ethyl-1H-pyrazol-4-yl)pyridazin-4(1H)-one]", "pIC50": "6.00 to 7.00"}, {"smiles": "Cn1cc(-n2ccc(=O)c(Cc3cccc(-c4ncc(OC5COC5)cn4)c3)n2)cn1", "note": "[Example 164, 1-(1-methyl-1H-pyrazol-4-yl)-3-{3-[5-(oxetan-3-yloxy)pyrimidin-2-yl]benzyl}pyridazin-4(1H)-one]", "pIC50": "> 7.00"}, {"smiles": "CCOc1cnc(-c2cccc(C(CC)c3nn(-c4cnn(C)c4)ccc3=O)c2)nc1", "note": "(single isomer, unassigned) [Example 205, 3-{(1S or R)-1-[3-(5-ethoxypyrimidin-2-yl)phenyl]propyl}-1-(1-methyl-1H-pyrazol-4-yl)pyridazin-4(1H)-one]", "pIC50": "6.00 to 7.00"}, {"smiles": "Cn1cc(-n2ccc(=O)c(Cc3cccc(-c4ncc(-c5ccncc5)cn4)c3)n2)cn1", "note": "[Example 409, 1-(1-Methyl-1H-pyrazol-4-yl)-3-{3-[5-(pyridin-4-yl)pyrimidin-2-yl]benzyl}pyridazin-4(1H)-one]", "pIC50": "> 7.00"}, {"smiles": "CCOc1cnc(-c2cccc(Cc3nn(-c4cnn(C5CCNCC5)c4)ccc3=O)c2)nc1", "note": "[Example 664, 3-[3-(5-ethoxypyrimidin-2-yl)benzyl]-1-(1-piperidin-4-yl-1H-pyrazol-4-yl)pyridazin-4(1H)-one]", "pIC50": "> 7.00"}, {"smiles": "Cn1cc(-c2cnc(-c3cccc(Cc4nn(-c5cc(Cl)cc(C#N)c5)ccc4=O)c3)nc2)cn1", "note": "[Example 158, 3-chloro-5-[3-{3-[5-(1-methyl-1H-pyrazol-4-yl)pyrimidin-2-yl]benzyl}-4-oxopyridazin-1(4H)-yl]benzonitrile]", "pIC50": "> 7.00"}, {"smiles": "Cn1cc(-n2ccc(=O)c(Cc3cccc(-c4ncc(N5CCCC5)cn4)c3)n2)cn1", "note": "[Example 470, 1-(1-methyl-1H-pyrazol-4-yl)-3-[3-(5-pyrrolidin-1-ylpyrimidin-2-yl)benzyl]pyridazin-4(1H)-one]", "pIC50": "> 7.00"}, {"smiles": "COCCNc1ccnc(-c2cccc(C(C)c3nn(-c4cnn(C)c4)ccc3=O)c2)n1", "note": "(single isomer, unassigned) [Example 695, 3-[(1R or S)-1-(3-{4-[(2-Methoxyethyl)amino]pyrimidin-2-yl}phenyl)ethyl]-1-(1-methyl-1H-pyrazol-4-yl)pyridazin-4(1H)-one]", "pIC50": "6.00 to 7.00"}, {"smiles": "CCCn1cnc(-c2cccc(Cc3nn(-c4cnn(CCO)c4)ccc3=O)c2)n1", "note": "[compound 192, 1-[1-(2-hydroxyethyl)-1H-pyrazol-4-yl]-3-[3-(1-propyl-1H-1,2,4-triazol-3-yl)benzyl]pyridazin-4(1H)-one]", "pIC50": "> 7.00"}, {"smiles": "Cn1cc(-n2ccc(=O)c(Cc3cccc(-c4ncn(CC5(C)COC5)n4)c3)n2)cn1", "note": "[Example 713, 3-(3-{1-[(3-methyloxetan-3-yl)methyl]-1H-1,2,4-triazol-3-yl}benzyl)-1-(1-methyl-1H-pyrazol-4-yl)pyridazin 4(1H)-one]", "pIC50": "6.00 to 7.00"}, {"smiles": "CC(C)COC(=O)Nc1cccc(Cc2nn(-c3ccc(-c4cn[nH]c4)cc3)ccc2=O)c1", "note": "[Example 731, 2-methylpropyl [3-({4-oxo-1-[4-(1H-pyrazol-4-yl)phenyl]-1,4-dihydropyridazin-3-yl}methyl)phenyl] carbamate]", "pIC50": "> 7.00"}, {"smiles": "CCOc1ccnc(-c2cccc(C(C)c3nn(-c4cnn(C)c4)ccc3=O)c2)n1", "note": "(racemic) [Example 678, rac-3-{1-[3-(4-Ethoxypyrimidin-2-yl)phenyl]ethyl}-1-(1-methyl-1H-pyrazol-4-yl)pyridazin-4(1H)-one]", "pIC50": "> 7.00"}, {"smiles": "Cn1cc(-n2ccc(=O)c(Cc3cccc(-c4ncc(OCc5ccccn5)cn4)c3)n2)cn1", "note": "[Example 354, 1-(1-methyl-1H-pyrazol-4-yl)-3-{3-[5-(pyridin-2-ylmethoxy)pyrimidin-2-yl]benzyl}pyridazin-4(1H)-one]", "pIC50": "> 7.00"}, {"smiles": "CC(C)(O)COc1cnc(-c2cccc(Cc3nn(-c4ccc(C#N)cc4)ccc3=O)c2)nc1", "note": "[Example 372, 4-[3-{3-[5-(2-hydroxy-2-methylpropoxy)pyrimidin-2-yl]benzyl}-4-oxopyridazin-1(4H)-yl]benzonitrile]", "pIC50": "> 7.00"}, {"smiles": "CCOC(=O)c1cccc(Cc2nn(-c3cnn(C)c3)ccc2=O)c1F", "note": "[Example 47, ethyl 2-fluoro-3-{[1-(1-methyl-1H-pyrazol-4-yl)-4-oxo-1,4-dihydropyridazin-3-yl]methyl}benzoate]", "pIC50": "6.00 to 7.00"}, {"smiles": "CNCCOC(=O)Nc1cccc(Cc2nn(-c3cc(F)c(F)c(F)c3)ccc2=O)c1", "note": "[Example 622, 2-(methylamino)ethyl (3-{[4-oxo-1-(3,4,5-trifluorophenyl)-1,4-dihydropyridazin-3-yl]methyl}phenyl)carbamate]", "pIC50": "> 7.00"}, {"smiles": "CC(C)c1cnc(-c2cccc(Cc3nn(-c4cnn(C)c4)ccc3=O)c2)nc1", "note": "[Example 436, 1-(1-Methyl-1H-pyrazol-4-yl)-3-{3-[5-(propan-2-yl)pyrimidin-2-yl]benzyl}pyridazin-4(1H)-one]", "pIC50": "> 7.00"}]}]}
